According to patent publication US20020137929A1, “1 - (3-heterocyclylphenyl) isothiourea, -isourea, -guanidine and -amidine herbicidal agents” (Intellectual Property Department, BASF Aktiengesellschaft, priority 1998, published 2002):

Assays:
[1] = system: IPOHE (Morningglory, Ivyleaf); experiment: Preemergence herbicidal evaluation; type: in vivo, Ipomoea hederacea; conditions: rated 4-5 weeks after treatment
Procedure, shortened: (§1)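 Scores (0–9) reflect visual comparison with control plants for stand, vigor, malformation, size and chlorosis. Compound was applied to the soil after sowing, before emergence, as an aqueous acetone spray (about 0.0156–0.500 kg/ha), and cups were kept in a greenhouse for 4–5 weeks.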

SETVI (Foxtail, Green) = experiment: Preemergence herbicidal evaluation; type: in vivo, Setaria viridis; conditions: rated 4-5 weeks after treatment
Procedure, shortened: as §1

ECHCG (Barnyardgrass) = experiment: Preemergence herbicidal evaluation; type: in vivo, Echinochloa crus-galli; conditions: rated 4-5 weeks after treatment
Procedure, shortened: as §1

[2] = system: TRZAWR (Wheat, Winter, cv Riband); experiment: Preemergence herbicidal evaluation; type: in vivo, Triticum aestivum; conditions: rated 4-5 weeks after treatment
Procedure, shortened: as §1

[3] = system: ECHORC (Watergrass (Calif.)); experiment: Postemergence weed control under flooded paddy conditions; type: in vivo, Echinochloa oryzoides; conditions: rate 0.2500 kg/ha, postemergence weeds, 3-4 weeks after treatment
Procedure, shortened: (§2)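 Weeds 3 to 5 cm tall and rice seedlings at the 1.5 to 2.5 leaf stage were flooded, with water held 1.5 to 3 cm above the soil. Compounds in 50/50 v/v aqueous/acetone went into the flood water at about 0.0313 to 0.500 kg/ha. Visual 0-9 ratings versus control were made 3 to 4 weeks later.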

[4] = system: IPOHE (Morningglory, Ivyleaf); experiment: Postemergence herbicidal evaluation; type: in vivo, Ipomoea hederacea
Procedure, shortened: (§3)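 ~2-wk seedlings; postemergence spray, 40 psi; vehicle 1:1 acetone:water + 0.5% Tween 20; rate ≈0.0156–0.500 kg/ha; greenhouse hold; scored 4–5 wk after treatment, 0–9 scale vs control; repeat tests averaged.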

ORYSAT (Rice, Tebonnet) = experiment: Preemergence herbicidal evaluation; type: in vivo, Oryza sativa, (L.) Tebonnet; conditions: rated 4-5 weeks after treatment
Procedure, shortened: as §1

CYPIR (Rice Flatsedge) = experiment: Postemergence weed control under flooded paddy conditions; type: in vivo, Cyperus iria; conditions: rate 0.2500 kg/ha, postemergence weeds, 3-4 weeks after treatment
Procedure, shortened: as §2

[5] = system: TRZAWR (Wheat, Winter, cv Riband); experiment: Postemergence herbicidal evaluation; type: in vivo, Triticum aestivum
Procedure, shortened: as §3

[6] = system: ECHORC (Watergrass (Calif.)); experiment: Preemergence weed control under flooded paddy conditions; type: in vivo, Echinochloa oryzoides; conditions: 0.2500 kg/ha, rated 3-4 weeks after treatment
Procedure, shortened: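 Seeds or propagules sown in top 0.5 cm of silt loam soil, flooded 1.5 to 3 cm above surface throughout. Compound in 50/50 v/v aqueous/acetone pipetted into flood water at about 0.0313 to 0.500 kg/ha. Visual 0-9 rating versus control after three to four weeks in greenhouse.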

[7] = system: CHEAL (Lambsquarters, Common); experiment: Preemergence herbicidal evaluation; type: in vivo, Chenopodium album; conditions: rated 4-5 weeks after treatment
Procedure, shortened: as §1

ABUTH (Velvetleaf) = experiment: Postemergence herbicidal evaluation; type: in vivo, Abutilon theophrasti
Procedure, shortened: as §3

With CCOC(=O)CN1C(=O)C(CC(=O)O)SC1=Nc1cc(-n2c(=O)cc(C(F)(F)F)n(C)c2=O)c(Cl)cc1Cl (centres unmarked) [Compound 33, 2-{{2,4-Dichloro-5-[3,6-dihydro-3-methyl-2,6-dioxo-4-(trifluoromethyl)-1(2H)-pyrimidinyl]phenyl}-imino}-4-oxo-3,5-thiazolidinediacetic acid, 3-ethyl ester] the “Preemergence herbicidal rating IPOHE” value ([1]; rate 0.0156 kg/ha) was 0.0, the “Preemergence herbicidal rating IPOHE” value ([1]; rate 0.0313 kg/ha) was 0.0 and the “Preemergence herbicidal rating IPOHE” value ([1]; rate 0.0625 kg/ha) was 0.0. The “Preemergence herbicidal rating IPOHE” value ([1]; rate 0.1250 kg/ha) was 0.0, the “Preemergence herbicidal rating IPOHE” value ([1]; rate 0.2500 kg/ha) was 9.0 and the “Preemergence herbicidal rating SETVI” value (SETVI (Foxtail, Green); rate 0.0156 kg/ha) was 0.0. The “Preemergence herbicidal rating SETVI” value (SETVI (Foxtail, Green); rate 0.0313 kg/ha) was 0.0, the “Preemergence herbicidal rating SETVI” value (SETVI (Foxtail, Green); rate 0.0625 kg/ha) was 3.0 and the “Preemergence herbicidal rating SETVI” value (SETVI (Foxtail, Green); rate 0.1250 kg/ha) was 3.0. The “Preemergence herbicidal rating SETVI” value (SETVI (Foxtail, Green); rate 0.2500 kg/ha) was 9.0, the “Preemergence herbicidal rating ECHCG” value (ECHCG (Barnyardgrass); rate 0.0156 kg/ha) was 0.0 and the “Preemergence herbicidal rating ECHCG” value (ECHCG (Barnyardgrass); rate 0.0313 kg/ha) was 0.0. For the same compound, the “Preemergence herbicidal rating ECHCG” value (ECHCG (Barnyardgrass); rate 0.0625 kg/ha) was 0.0, the “Preemergence herbicidal rating ECHCG” value (ECHCG (Barnyardgrass); rate 0.1250 kg/ha) was 0.0 and the “Preemergence herbicidal rating ECHCG” value (ECHCG (Barnyardgrass); rate 0.2500 kg/ha) was 0.0. For the same compound, the “Preemergence herbicidal rating TRZAWR” value ([2]; rate 0.0156 kg/ha) was 0.0, the “Preemergence herbicidal rating TRZAWR” value ([2]; rate 0.0313 kg/ha) was 0.0 and the “Preemergence herbicidal rating TRZAWR” value ([2]; rate 0.0625 kg/ha) was 0.0. For the same compound, the “Preemergence herbicidal rating TRZAWR” value ([2]; rate 0.1250 kg/ha) was 0.0, the “Preemergence herbicidal rating TRZAWR” value ([2]; rate 0.2500 kg/ha) was 0.0 and the “Herbicidal rating ECHORC” value [3] was 0.0. The “Postemergence herbicidal rating IPOHE” value ([4]; Rate 0.0158 kg/ha) was 9.0, the “Postemergence herbicidal rating IPOHE” value ([4]; Rate 0.0315 kg/ha) was 9.0 and the “Postemergence herbicidal rating IPOHE” value ([4]; Rate 0.0630 kg/ha) was 9.0. For the same compound, the “Preemergence herbicidal rating ORYSAT” value (ORYSAT (Rice, Tebonnet); rate 0.0156 kg/ha) was 0.0, the “Preemergence herbicidal rating ORYSAT” value (ORYSAT (Rice, Tebonnet); rate 0.0313 kg/ha) was 0.0 and the “Preemergence herbicidal rating ORYSAT” value (ORYSAT (Rice, Tebonnet); rate 0.0625 kg/ha) was 0.0. For the same compound, the “Preemergence herbicidal rating ORYSAT” value (ORYSAT (Rice, Tebonnet); rate 0.1250 kg/ha) was 0.0, the “Preemergence herbicidal rating ORYSAT” value (ORYSAT (Rice, Tebonnet); rate 0.2500 kg/ha) was 0.0 and the “Herbicidal rating CYPIR” value (CYPIR (Rice Flatsedge)) was 0.0. For the same compound, the “Postemergence herbicidal rating TRZAWR” value ([5]; Rate 0.0158 kg/ha) was 3.5, the “Postemergence herbicidal rating TRZAWR” value ([5]; Rate 0.0315 kg/ha) was 5.5 and the “Postemergence herbicidal rating TRZAWR” value ([5]; Rate 0.0630 kg/ha) was 6.0. The “Herbicidal rating ECHORC” value [6] was 0.0, the “Preemergence herbicidal rating CHEAL” value ([7]; rate 0.0156 kg/ha) was 4.0 and the “Preemergence herbicidal rating CHEAL” value ([7]; rate 0.0625 kg/ha) was 7.0. The “Preemergence herbicidal rating CHEAL” value ([7]; rate 0.1250 kg/ha) was 9.0, the “Preemergence herbicidal rating CHEAL” value ([7]; rate 0.2500 kg/ha) was 9.0 and the “Postemergence herbicidal rating ABUTH” value (ABUTH (Velvetleaf); Rate 0.0158 kg/ha) was 9.0. For the same compound, the “Postemergence herbicidal rating ABUTH” value (ABUTH (Velvetleaf); Rate 0.0315 kg/ha) was 9.0 and the “Postemergence herbicidal rating ABUTH” value (ABUTH (Velvetleaf); Rate 0.0630 kg/ha) was 9.0.
